This is an account of results in patent publication US7915423B2, “Solid states of pantoprazole sodium, processes for preparing them and processes for preparing known pantoprazole sodium hydrates” (Teva Pharmaceutical Industries, Ltd., priority 2002, dated 2011).

Each structure is given as a SMILES string.

The nature of series [1]: Thermal interconversion of solid forms on drying, followed by PXRD. The format is physicochemical. On the procedure: The PXRD patterns depicted in the accompanying figures were obtained on a Scintag X-Ray powder diffractometer model X'TRA with a copper tube solid state detector. A round standard aluminum sample holder with round zero background quartz plate was used. Scanning parameters: Range: 2-40°2θ: continuous scan, Rate: 3 deg./min.
The mixture was stirred overnight at ambient temperature, giving the crystals. The crystals were filtered on filter paper.
Pantoprazole sodium Form V was dried at 65° C. under ambient pressure for two hours.
The solution was stirred overnight without precipitation. The solution was allowed to stand overnight in an opened flask with precipitation of the product. The crystals were filtered and allowed to stand at room temperature open to the air for a short period of time but were not otherwise dried.
The pantoprazole sodium Form VI was then dried at 50° C. under a 10 mm Hg vacuum overnight. The resulting powder was analyzed by PXRD and found to be amorphous.

Assay in series [2]: as above
The format is physicochemical. The conditions noted are these: 100° C. under 10 mm vacuum overnight.

A short description of series [3]: Solubility of pantoprazole sodium in alcohols. The format is physicochemical. From the text:
Accordingly, initial investigation focused on how this solvate could be produced by crystallization from a solution rather than a heterogeneous technique. We discovered that combining free pantoprazole and solid sodium hydroxide in 1-butanol and crystallization of the resulting pantoprazole sodium salt yielded Form V. The presence of minor amounts of water originating from the use of non-anhydrous 1-butanol, a hydrated starting material or water adsorbed on the equipment used for crystallization has no effect on the crystal form obtained. […] Again, conditions depleted of water, yet not rigorously anhydrous were investigated. We discovered that Form X can be obtained by crystallization from a solution formed by combining free pantoprazole with sodium hydroxide in 1-propanol.

For series [4] the following is noted: cited from earlier work.
Setting [5] is: 65° C. under ambient pressure for two hours.
[6] abbreviates: 50° C. under 10 mm Hg vacuum overnight.

With `COc1ccnc(C[S+]([O-])c2nc3ccc(OC(F)F)cc3[nH]2)c1OC` (stereo not shown) [Form VIII, pantoprazole sodium], the “solid form obtained after drying” value in series [1] (50° C. under 10 mm Hg vacuum, time not given) was “pantoprazole sodium Form I”. `COc1ccnc(C[S+]([O-])c2nc3ccc(OC(F)F)cc3[nH]2)c1OC` (stereo not shown) [Form XX, pantoprazole sodium]: the dehydration on drying entry in series [1] (mild conditions such as 50° C. at 10 mm Hg vacuum) was “without causing significant dehydration”. Regarding `COc1ccnc(C[S+]([O-])c2nc3ccc(OC(F)F)cc3[nH]2)c1OC` (stereo not shown) [Form XVIII, pantoprazole sodium], the “solid form by PXRD as wet sample and after drying” value in series [1] (drying at 50° C.) is listed as “Form XVIII”. In the case of `COc1ccnc(C[S+]([O-])c2nc3ccc(OC(F)F)cc3[nH]2)c1OC` (stereo not shown) [Pantoprazole sodium sesquihydrate, pantoprazole sodium], the “solid form obtained after drying” value in series [2] is on record as “amorphous pantoprazole sodium”. Take `COc1ccnc(C[S+]([O-])c2nc3ccc(OC(F)F)cc3[nH]2)c1OC` (stereo not shown) [Form V, pantoprazole sodium]: the “solid form obtained after drying (PXRD)” value in series [1] (setting [5]) was “pantoprazole sodium Form XIII”; in series [1] (65° C. under ambient pressure for two hours, listed as pantoprazole sodium 1-butanol solvate) it was “pantoprazole sodium Form XIII”. For the compound `COc1ccnc(C[S+]([O-])c2nc3ccc(OC(F)F)cc3[nH]2)c1OC` (stereo not shown) [Pantoprazole sodium, pantoprazole sodium], the “solubility in 1-butanol” value in series [3] (1-butanol) was “appreciably soluble”. For the same compound, in series [3] (1-propanol), the “solubility in 1-propanol” value was “high solubility”. With `COc1ccnc(C[S+]([O-])c2nc3ccc(OC(F)F)cc3[nH]2)c1OC` (stereo not shown) [Form XIV, pantoprazole sodium], the “solid form obtained after drying (PXRD)” value in series [1] (setting [6]) is reported as “pantoprazole sodium Form XV”. For the compound `COc1ccnc(C[S+]([O-])c2nc3ccc(OC(F)F)cc3[nH]2)c1OC` (stereo not shown) [Form XIII, pantoprazole sodium], the “solid form obtained after further drying” value in series [1] (65° C. for another two hours under ambient pressure (Form XIII obtained from Form V)) was “partially amorphous”. In series [1] (setting [5]), the “solid form obtained after drying (PXRD)” value is “amorphous pantoprazole sodium”. Regarding `COc1ccnc(C[S+]([O-])c2nc3ccc(OC(F)F)cc3[nH]2)c1OC` (stereo not shown) [Form VI, pantoprazole sodium], the “solid form obtained after drying (PXRD)” value in series [1] (setting [6]) is “amorphous”. For `COc1ccnc(C[S+]([O-])c2nc3ccc(OC(F)F)cc3[nH]2)c1OC` (stereo not shown) [Form IV, pantoprazole sodium], the “solid form obtained after drying (PXRD)” value in series [1] (setting [6]) is “pantoprazole sodium Form I”.

Regarding `COc1ccnc(C[S+]([O-])c2nc3ccc(OC(F)F)cc3[nH]2)c1OC` (stereo not shown) [Form XII, pantoprazole sodium], the “solid form obtained after drying (PXRD)” value in series [1] (setting [5]) was “pantoprazole sodium Form XIII”; in series [1] (65° C. under ambient pressure for two hours, listed as pantoprazole sodium 2-methylpropanol solvate), “pantoprazole sodium Form XIII”. For the compound `COc1ccnc(C[S+]([O-])c2nc3ccc(OC(F)F)cc3[nH]2)c1OC` (stereo not shown) [monohydrate, pantoprazole sodium], the solubility in acetone entry in series [4] is “dissolves with difficulty”.
